Experimental data as given in US11654096B2 (L'OREAL, priority 2017, dated 2023).
Several values for one entry are separate records, joined by “and”; a condition that tells them apart may be missing. Identical values can stand only once.

What was measured:
Type in all cases: cell-based
[1] = tested on: normal human dermal fibroblasts (NHDFs); test: Neosynthesis of sulfated GAGs by NHDFs, [35S]-sulfate incorporation; details: for % Control / Mean (cpm) / [35S]-Sulfate (cpm): sulfated GAGs, NHDFs; for [35S]-Sulfate (cpm): single replicates; for effect on the neosynthesis of the sulfated GAGs by the NHDFs (in words): tested at 10 and 100 μM
Procedure: (§1) The effects of the compounds on the neosynthesis of total and sulfated glycosaminoglycans (GAGs) were studied on two cell models, normal human epidermal keratinocytes (NHEKs) and normal human dermal fibroblasts (NHDFs). The effects of these compounds were evaluated by measuring: • the incorporation of [3H]-glucosamine into the total GAGs neosynthesized by NHEKs and by NHDFs, • the incorporation of [35S]-sulfate into the sulfated GAGs neosynthesized by NHEKs and by NHDFs.
(§2) The fibroblasts were seeded into wells and cultured in culture medium for 24 hours. The medium was then replaced with culture medium containing or not containing (controt) the compounds to be tested or the reference (TGF-β at 10 ng/ml), then the cells were incubated for 72 hours with the addition of the [35S]-sulfate radioactive label (sulfated GAGs) or of the [3H]-glucosamine radioactive label (total GAGs) for the final 24 hours of incubation.
(§3) At the end of the incubation, the glycosaminoglycans were extracted from the cells with a chaotropic buffer. The GAGs were then purified by ion exchange chromatography: adsorption of the anionic molecules on Q-Sepharose beads and desorption of the molecules of low or medium anionic nature, with a suitable solution.
(§4) The radioactivity incorporated into the molecules left on the support (GAGs, predominantly) was measured by liquid scintillation.
(§5) All the experimental conditions were performed in n=3.
(§6) The inter-group comparisons were performed using Student's non-paired two-sided t-test. The statistical analyses can be interpreted if n≥5; however, for n<5, the data calculated are provided only by way of indication.

[2] = tested on: normal human dermal fibroblasts (NHDFs); test: Neosynthesis of total GAGs by NHDFs, [3H]-glucosamine incorporation; details: for effect on the neosynthesis of the total GAGs by the NHDFs (in words): tested at 10 and 100 μM; for % Control / Mean (cpm) / [3H]-glucosamine (cpm): total GAGs, NHDFs; for [3H]-glucosamine (cpm): single replicates
Procedure: as §1, §2, §3, §4, §5, §6

[3] = tested on: normal human epidermal keratinocytes (NHEKs); test: Neosynthesis of total GAGs by NHEKs, [3H]-glucosamine incorporation; details: for effect on the neosynthesis of the total GAGs by the NHEKs (in words): tested at 10 and 100 μM; for % Control / Mean (cpm) / [3H]-glucosamine (cpm): total GAGs, NHEKs; for [3H]-glucosamine (cpm): single replicates
Procedure: as §1
(§7) The keratinocytes were seeded into wells and cultured in culture medium for 24 hours. The medium was then replaced with culture medium containing or not containing (control) the compounds to be tested or the reference (4-nitrophenyl β-D-xylopyranoside at 300 μM), then the cells were incubated for 72 hours with the addition of the [3H]-glucosamine radioactive label (total GAGs) or of the [35S]-sulfate radioactive label (sulfated GAGs) for the final 24 hours of incubation.
as §3, §4, §5, §6

[4] = tested on: normal human epidermal keratinocytes (NHEKs); test: Neosynthesis of sulfated GAGs by NHEKs, [35S]-sulfate incorporation; details: for % Control / Mean (cpm) / [35S]-Sulfate (cpm): sulfated GAGs, NHEKs; for [35S]-Sulfate (cpm): single replicates; for effect on the neosynthesis of the sulfated GAGs by the NHEKs (in words): tested at 10 and 100 μM
Procedure: as §1, §7, §3, §4, §5, §6

OC[C@H]1O[C@@H](Oc2cc(O)cc(/C=C/c3ccc(O)cc3)c2)[C@H](O)[C@@H](O)[C@@H]1O [Polydatin]
% Control ([1]; campaign 1, 10 μM): 96% | Mean (cpm) ([1]; campaign 1, 10 μM): 1573 cpm | [35S]-Sulfate (cpm) ([1]; campaign 1, 10 μM): 1523 cpm and 1479 cpm and 1718 cpm | % Control ([1]; campaign 1, 100 μM): 78% | Mean (cpm) ([1]; campaign 1, 100 μM): 1287 cpm | [35S]-Sulfate (cpm) ([1]; campaign 1, 100 μM): 1290 cpm and 1317 cpm and 1255 cpm | effect on the neosynthesis of the sulfated GAGs by the NHDFs (in words) [1]: overall inhibited | effect on the neosynthesis of the total GAGs by the NHDFs (in words) [2]: overall inhibited | effect on the neosynthesis of the total GAGs by the NHEKs (in words) [3]: did not modulate | % Control ([3]; campaign 1, 10 μM): 102% | Mean (cpm) ([3]; campaign 1, 10 μM): 13202 cpm | [3H]-glucosamine (cpm) ([3]; campaign 1, 10 μM): 13405 cpm and 13192 cpm and 13010 cpm | % Control ([3]; campaign 1, 100 μM): 90% | Mean (cpm) ([3]; campaign 1, 100 μM): 11660 cpm | [3H]-glucosamine (cpm) ([3]; campaign 1, 100 μM): 12222 cpm and 11510 cpm and 11248 cpm | % Control ([4]; campaign 1, 10 μM): 100% | Mean (cpm) ([4]; campaign 1, 10 μM): 6760 cpm | [35S]-Sulfate (cpm) ([4]; campaign 1, 10 μM): 6316 cpm and 6800 cpm and 7164 cpm | % Control ([4]; campaign 1, 100 μM): 119% | Mean (cpm) ([4]; campaign 1, 100 μM): 8043 cpm | [35S]-Sulfate (cpm) ([4]; campaign 1, 100 μM): 7007 cpm and 8365 cpm and 8756 cpm | effect on the neosynthesis of the sulfated GAGs by the NHEKs (in words) [4]: did not modulate

Oc1ccc(C=Cc2cc(O)cc(O)c2)cc1 [Resveratrol]
% Control ([1]; campaign 1, 10 μM): 93% | Mean (cpm) ([1]; campaign 1, 10 μM): 1527 cpm | [35S]-Sulfate (cpm) ([1]; campaign 1, 10 μM): 1506 cpm and 1556 cpm and 1519 cpm | % Control ([1]; campaign 1, 100 μM): 62% | Mean (cpm) ([1]; campaign 1, 100 μM): 1019 cpm | [35S]-Sulfate (cpm) ([1]; campaign 1, 100 μM): 967 cpm and 1045 cpm and 1046 cpm | % Control ([1]; campaign 2, 10 μM): 101% | Mean (cpm) ([1]; campaign 2, 10 μM): 571 cpm | [35S]-Sulfate (cpm) ([1]; campaign 2, 10 μM): 613 cpm and 513 cpm and 586 cpm | % Control ([1]; campaign 2, 100 μM): 54% | Mean (cpm) ([1]; campaign 2, 100 μM): 305 cpm | [35S]-Sulfate (cpm) ([1]; campaign 2, 100 μM): 355 cpm and 283 cpm and 276 cpm | effect on the neosynthesis of the sulfated GAGs by the NHDFs (in words) [1]: overall inhibited | effect on the neosynthesis of the total GAGs by the NHDFs (in words) [2]: overall inhibited | % Control ([2]; campaign 2, 10 μM): 98% | Mean (cpm) ([2]; campaign 2, 10 μM): 1534 cpm | [3H]-glucosamine (cpm) ([2]; campaign 2, 10 μM): 1439 cpm and 1533 cpm and 1630 cpm | % Control ([2]; campaign 2, 100 μM): 86% | Mean (cpm) ([2]; campaign 2, 100 μM): 1339 cpm | [3H]-glucosamine (cpm) ([2]; campaign 2, 100 μM): 1253 cpm and 1360 cpm and 1404 cpm | effect on the neosynthesis of the total GAGs by the NHEKs (in words) [3]: inhibited, in a concentration-dependent manner | % Control ([3]; campaign 1, 10 μM): 64% | Mean (cpm) ([3]; campaign 1, 10 μM): 8328 cpm | [3H]-glucosamine (cpm) ([3]; campaign 1, 10 μM): 7566 cpm and 8537 cpm and 8880 cpm | % Control ([3]; campaign 1, 100 μM): 13% | Mean (cpm) ([3]; campaign 1, 100 μM): 1743 cpm | [3H]-glucosamine (cpm) ([3]; campaign 1, 100 μM): 1509 cpm and 1754 cpm and 1967 cpm | % Control ([3]; campaign 2, 1 μM): 113% | Mean (cpm) ([3]; campaign 2, 1 μM): 9628 cpm | [3H]-glucosamine (cpm) ([3]; campaign 2, 1 μM): 10734 cpm and 10012 cpm and 8137 cpm | % Control ([3]; campaign 2, 10 μM): 86% | Mean (cpm) ([3]; campaign 2, 10 μM): 7347 cpm | [3H]-glucosamine (cpm) ([3]; campaign 2, 10 μM): 6772 cpm and 7143 cpm and 8126 cpm | % Control ([4]; campaign 1, 10 μM): 77% | Mean (cpm) ([4]; campaign 1, 10 μM): 5254 cpm | [35S]-Sulfate (cpm) ([4]; campaign 1, 10 μM): 5238 cpm and 5506 cpm and 5018 cpm | % Control ([4]; campaign 1, 100 μM): 27% | Mean (cpm) ([4]; campaign 1, 100 μM): 1802 cpm | [35S]-Sulfate (cpm) ([4]; campaign 1, 100 μM): 1836 cpm and 1725 cpm and 1845 cpm | Mean (cpm) ([4]; campaign 2, 1 μM): 6530 cpm | [35S]-Sulfate (cpm) ([4]; campaign 2, 1 μM): 6885 cpm and 6817 cpm and 5888 cpm | % Control ([4]; campaign 2, 10 μM): 94% | Mean (cpm) ([4]; campaign 2, 10 μM): 4973 cpm | [35S]-Sulfate (cpm) ([4]; campaign 2, 10 μM): 5137 cpm and 4981 cpm and 4802 cpm | effect on the neosynthesis of the sulfated GAGs by the NHEKs (in words) [4]: inhibited, in a concentration-dependent manner
